Experimental data from Sander's compilation of Henry's law constants (doi:10.1016/s0045-6535(99)00082-x).

Assay: Henry solubility constant Hcp at 298.15 K (mol/(m3 Pa))
Details: reference: Altschuh et al. (1999)
For `Clc1ccc(C(c2ccc(Cl)cc2)C(Cl)(Cl)Cl)cc1` [1,1,1-trichloro-2,2-bis-(4-chlorophenyl)-ethane], the “Henry solubility constant Hcp” value was 1.2. For `Clc1ccc(C(c2ccc(Cl)cc2)C(Cl)Cl)cc1` [1,1-dichloro-2,2-bis-(4-chlorophenyl)-ethane], the “Henry solubility constant Hcp” value was 1.5. With `ClC(Cl)=C(c1ccc(Cl)cc1)c1ccc(Cl)cc1` [1,1-dichloro-2,2-bis-(4-chlorophenyl)-ethene] the “Henry solubility constant Hcp” value was 0.24. With `CCC(O)CO` (stereo unspecified) [1,2-butanediol] the “Henry solubility constant Hcp” value was greater than 340. For `O=[N+]([O-])c1ccc(Cl)c(Cl)c1` [1,2-dichloro-4-nitrobenzene], the “Henry solubility constant Hcp” value was 1.2. In the case of `OCCCCO` [1,4-butanediol], the “Henry solubility constant Hcp” value is reported as greater than 900. In the case of `O=[N+]([O-])c1cc(Cl)ccc1Cl` [1,4-dichloro-2-nitrobenzene], the “Henry solubility constant Hcp” value is reported as 0.82. For `Nc1cccc(Cl)c1` [1-amino-3-chlorobenzene], the “Henry solubility constant Hcp” value was 9.8. For `CCCCN` [1-butanamine], the “Henry solubility constant Hcp” value was 0.56. In the case of `CCCCCCCCCCO` [1-decanol], the “Henry solubility constant Hcp” value is reported as 0.31. In the case of `CCc1cccc2ccccc12` [1-ethylnaphthalene], the “Henry solubility constant Hcp” value is reported as 0.014. For `CCCCCCCO` [1-heptanol], the “Henry solubility constant Hcp” value was 0.86. In the case of `CCCCCCO` [1-hexanol], the “Henry solubility constant Hcp” value is reported as 0.98. In the case of `Cc1ccccc1O` [1-hydroxy-2-methylbenzene], the “Henry solubility constant Hcp” value is reported as 6.3. In the case of `Cc1cccc(O)c1` [1-hydroxy-3-methylbenzene], the “Henry solubility constant Hcp” value is reported as 12. For `Cc1ccc(O)cc1` [1-hydroxy-4-methylbenzene], the “Henry solubility constant Hcp” value was greater than 2.9. In the case of `Cc1cccc2ccccc12` [1-methylnaphthalene], the “Henry solubility constant Hcp” value is reported as 0.019. In the case of `Nc1cccc2ccccc12` [1-naphthylamine], the “Henry solubility constant Hcp” value is reported as 160. In the case of `O=[N+]([O-])c1cccc2ccccc12` [1-nitronaphthalene], the “Henry solubility constant Hcp” value is reported as 5.6. In the case of `CCCCCCCCO` [1-octanol], the “Henry solubility constant Hcp” value is reported as 0.65. With `CCCO` [1-propanol] the “Henry solubility constant Hcp” value was 2.7. In the case of `CCCCCCCCCCCCCN` [1-tridecanamine], the “Henry solubility constant Hcp” value is reported as 0.09. For `OCC#CCO` [2-butyne-1,4-diol], the “Henry solubility constant Hcp” value was greater than 2000. For `Nc1ccc([N+](=O)[O-])cc1Cl` [2-chloro-4-nitrobenzenamine], the “Henry solubility constant Hcp” value was 1000. With `CCc1ccc2ccccc2c1` [2-ethylnaphthalene] the “Henry solubility constant Hcp” value was 0.018. In the case of `CC(C)CO` [2-methyl-1-propanol], the “Henry solubility constant Hcp” value is reported as 1.1. With `C=CC(C)(C)O` [2-methyl-3-buten-2-ol] the “Henry solubility constant Hcp” value was 0.47. For `C#CC(C)(C)O` [2-methyl-3-butyn-2-ol], the “Henry solubility constant Hcp” value was 2.5. For `Cc1ccccc1N` [2-methylbenzenamine], the “Henry solubility constant Hcp” value was 5. With `Cc1ccc2ccccc2c1` [2-methylnaphthalene] the “Henry solubility constant Hcp” value was 0.016. In the case of `Nc1ccccc1[N+](=O)[O-]` [2-nitrobenzenamine], the “Henry solubility constant Hcp” value is reported as 170. With `OCCc1ccccc1` [2-phenylethanol] the “Henry solubility constant Hcp” value was greater than 37. For `CC(C)O` [2-propanol], the “Henry solubility constant Hcp” value was 0.92. For `C=CC(C)(O)CCC=C(C)C` (stereo unspecified) [3,7-dimethyl-1,6-octadien-3-ol], the “Henry solubility constant Hcp” value was 0.46. In the case of `O=[N+]([O-])c1cccc(Cl)c1` [3-chloronitrobenzene], the “Henry solubility constant Hcp” value is reported as 0.73. With `Cc1cccc(N)c1` [3-methylbenzenamine] the “Henry solubility constant Hcp” value was 5.9. With `CC1CCCC(O)C1` (stereo unspecified) [3-methylcyclohexanol] the “Henry solubility constant Hcp” value was 2.7. With `Cc1cccc([N+](=O)[O-])c1` [3-nitrotoluene] the “Henry solubility constant Hcp” value was 1.1. In the case of `OCCCc1ccccc1` [3-phenyl-1-propanol], the “Henry solubility constant Hcp” value is reported as greater than 180. For `O=[N+]([O-])c1ccc(Cl)cc1` [4-chloronitrobenzene], the “Henry solubility constant Hcp” value was 2. For `Nc1ccc([N+](=O)[O-])cc1` [4-nitrobenzenamine], the “Henry solubility constant Hcp” value was 8600. With `Cc1ccc([N+](=O)[O-])cc1` [4-nitrotoluene] the “Henry solubility constant Hcp” value was 1.8. For `OCCCCc1ccccc1` [4-phenyl-1-butanol], the “Henry solubility constant Hcp” value was greater than 6.7. With `CCNc1ccccc1` [(ethylamino)-benzene] the “Henry solubility constant Hcp” value was 1. With `OCc1ccccc1` [(hydroxymethyl)-benzene] the “Henry solubility constant Hcp” value was greater than 37. In the case of `CCCCCCCCCCCCN(C)C` [N,N-dimethyl-1-dodecanamine], the “Henry solubility constant Hcp” value is reported as greater than 4. In the case of `CN(C)C1CCCCC1` [N,N-dimethylcyclohexylamine], the “Henry solubility constant Hcp” value is reported as 0.42. For `ClC1=C(Cl)[C@]2(Cl)[C@H]3[C@H]([C@@H]4C=C[C@H]3C4)[C@@]1(Cl)C2(Cl)Cl` [aldrin], the “Henry solubility constant Hcp” value was 0.22. With `Nc1ccccc1` [aminobenzene] the “Henry solubility constant Hcp” value was 5.2. With `c1ccccc1` [benzene] the “Henry solubility constant Hcp” value was 0.0037. For `c1ccc2c(c1)cc1ccc3cccc4ccc2c1c34` [benzo[a]pyrene], the “Henry solubility constant Hcp” value was 13. With `OC1CCCCCCCCCCC1` [cyclododecanol] the “Henry solubility constant Hcp” value was 3.4. For `NC1CCCCC1` [cyclohexanamine], the “Henry solubility constant Hcp” value was 2.4. With `CCCCNCCCC` [dibutylamine] the “Henry solubility constant Hcp” value was 1. In the case of `ClC1=C(Cl)[C@]2(Cl)[C@@H]3[C@@H]4C[C@@H]([C@H]5O[C@@H]45)[C@@H]3[C@@]1(Cl)C2(Cl)Cl` [dieldrin], the “Henry solubility constant Hcp” value is reported as 0.98. For `ClC1=C(Cl)[C@]2(Cl)[C@@H]3[C@H]4C[C@H]([C@@H]5O[C@H]45)[C@@H]3[C@@]1(Cl)C2(Cl)Cl` [endrin], the “Henry solubility constant Hcp” value was 1.6. In the case of `CCO` [ethanol], the “Henry solubility constant Hcp” value is reported as 1.3. For `ClC1=C(Cl)C2(Cl)C3C(Cl)C=CC3C1(Cl)C2(Cl)Cl` (stereo unspecified) [heptachlor], the “Henry solubility constant Hcp” value was 0.034. In the case of `ClC1=C(Cl)C2(Cl)C3C4OC4C(Cl)C3C1(Cl)C2(Cl)Cl` (stereo unspecified) [heptachlorepoxide], the “Henry solubility constant Hcp” value is reported as 0.47. In the case of `COc1ccc(C(c2ccc(OC)cc2)C(Cl)(Cl)Cl)cc1` [methoxychlor], the “Henry solubility constant Hcp” value is reported as 49. In the case of `Cc1ccccc1` [methylbenzene], the “Henry solubility constant Hcp” value is reported as 0.0017. For `c1ccc2ccccc2c1` [naphthalene], the “Henry solubility constant Hcp” value was 0.018. In the case of `O=[N+]([O-])c1ccccc1` [nitrobenzene], the “Henry solubility constant Hcp” value is reported as 1.2. For `ClC1C(Cl)C(Cl)C(Cl)C(Cl)C1Cl` (stereo not drawn) [α-1,2,3,4,5,6-hexachlorocyclohexane], the “Henry solubility constant Hcp” value was 0.81. For `ClC1C(Cl)C(Cl)C(Cl)C(Cl)C1Cl` (stereo not drawn) [β-1,2,3,4,5,6-hexachlorocyclohexane], the “Henry solubility constant Hcp” value was 22. For `ClC1C(Cl)C(Cl)C(Cl)C(Cl)C1Cl` (stereo unspecified) [γ-1,2,3,4,5,6-hexachlorocyclohexane], the “Henry solubility constant Hcp” value was 1.9.
